Where two headings read alike, the source gives them in different places.
Tests used:
[1] = Blood elimination kinetics of contrast media in rats after one-time intravenous administration; assay type: in vivo, rats (Han Wistar, Schering SPF); conditions: for distribution volume Vss, MEAN / elimination half-life Tβ, MEAN / total clearance CLtot, MEAN: one-time i.v., Dy-DTPA 100 μmol Dy/kg (n=3), Example 1c 50 μmol Gd/kg (n=2), TOPFIT 2.0
Description: The blood elimination kinetics of contrast media was examined in rats (Han Wistar, Schering SPF, ≈250 g of body weight). For this purpose, after one-time intravenous administration (via a caudal vein) of the substances (dose: 50-100 μmol of Me per kg of body weight), the substance concentration in the blood (based on the Gd or Dy content) was determined over a period of up to 300 minutes p.i. with the aid of ICP-AES. The pharmacokinetic parameters: distribution volume (Vss), total clearance (CLtot) and elimination half-life (tβ) were calculated with a special computer program (TOPFIT 2.0; Thomae, Schering, Gödecke), whereby a one- or two-compartment distribution model was used as a basis.
FIG. 1 represents elimination from the blood (in % of the injected dose) of Dy-DTPA (dose: 100 μmol of Dy per kg of body weight, n=3) and of the fluorine compounds of Example 1c according to the invention (dose: 50 μmol of Gd per kg of body weight, n=2) after one-time intravenous administration of substances in rats (Han Wistar, Schering SPF, ≈250 g of body weight).
The Gd and Dy contents in the blood were determined with the aid of ICP-AES.

[2] = T1-relaxivity with Minispec pc 20 (20 MHz, 0.47T) at 37° C. in water and human plasma; assay type: physicochemical; conditions: for T1-relaxivity: 20 MHz; for R^1 [L/mmol * sec] at 0.47 T and 37° C. Plasma / R^1 [L/mmol * sec] at 0.47 T and 37° C. Water: T1-relaxivity, Minispec pc 20 (20 MHz, 0.47 T); for R^1 [L/mmol * sec] at 0.47 T and 37° C. Plasma: in human plasma; for R^1 [L/mmol * sec] at 0.47 T and 37° C. Water: in water
Description: The relaxivity of the following compounds was determined with a Minispec pc 20 (20 MHz, 0.47T) at 37° C. in water and human plasma and compared to that of Gd-DTPA-polylysine and Magnevist^(R) as comparison substances.

[3] = Lymph node visualization (MRT) after interstitial administration of the contrast medium; assay type: in vivo; conditions: guinea pigs, 120 minutes after s.c. 10 μmol of Gd/kg, T1-weighted spin echo (TR 400 ms, TE 15 ms)
Description: It was possible to confirm the special suitability of the compounds according to the invention in MR imaging studies in guinea pigs. Thus, 120 minutes after subcutaneous administration of 10 μmol/kg of body weight of a perfluorine-containing gadolinium complex (guinea pigs, hind paw, interdigital space) in T^1-weighted spin-echo images (TR 400 ms, TE 15 ms), a clear enhancement of the popliteal lymph nodes (270%) as well as the inguinal lymph nodes (104%) was observed (cf. Image 1).

[4] = Elimination of the contrast medium after i.p. administration (retention of metal in liver and remainder of the body); assay type: in vivo; conditions: rats, i.p. 100 μmol of total gadolinium/kg, 14 days p.i.
Description: After administration of a perfluorinated gadolinium complex according to the invention (100 μmol of total gadolinium/kg of body weight) in the intraperitoneal space of rats, the retention of metal in the liver as well as in the remainder of the body was examined 14 days after administration. In this test, fluorine-containing compound 2c) was used. After 14 days p.i., the gadolinium concentration was 0.22% of the administered dose in the liver and 1.1% of the administered dose in the remainder of the body.

[5] = rat, in vivo, iv; cited from earlier work
[6] = T1-relaxivity, from Invest. Radiol. 1992, 346, cited from earlier work

Row | Compound | T1-relaxivity ([2]; human plasma) | T1-relaxivity ([2]; water) | R^1 [L/mmol * sec] at 0.47 T and 37° C. Plasma [2] | R^1 [L/mmol * sec] at 0.47 T and 37° C. Water [2] | further results
1 | O=C([O-])CN(CCN(CC(=O)[O-])CC(=O)[O-])CCN(CC(=O)[O-])CC(=O)[O-].[Dy+3].[Na+].[Na+] [Dy-DTPA, reference compound] | – | – | – | – | distribution volume Vss, MEAN [1]: 0.17 L/kg; elimination half-life Tβ, MEAN [1]: 14.98 min; total clearance CLtot, MEAN [1]: 9.27 mL/min/kg
2 | CCN(CC(=O)NCC(O)CN1CCN(CC(=O)[O-])CCN(CC(=O)[O-])CCN(CC(=O)[O-])CC1)S(=O)(=O)C(F)(F)C(F)(F)C(F)(F)C(F)(F)C(F)(F)C(F)(F)C(F)(F)C(F)(F)F.[Gd+3] (stereo not drawn) [Example 1c, Gadolinium Complex of 10-[2-hydroxy-4-aza-5-oxo-7aza-7-(perfluorooctylsulfonyl)-nonyl]-1,4,7-tris(carboxymethyl)-1,4,7,10-tetraazacyclododecane] | 49 L/mmol/s | 41 L/mmol/s | 49 L/mmol/s | 41 L/mmol/s | distribution volume in comparison to Dy-DTPA ([1]; i.v.): smaller distribution volume; elimination from the blood in comparison to Dy-DTPA ([1]; i.v.): considerably slower elimination from the blood; distribution volume Vss, MEAN [1]: 0.14 L/kg; elimination half-life Tβ, MEAN [1]: 95.01 min; total clearance CLtot, MEAN [1]: 1.07 mL/min/kg
3 | CCN(CC(=O)NCC(O)CN1CCN(CC(=O)[O-])CCN(CC(=O)[O-])CCN(CC(=O)[O-])CC1)S(=O)(=O)C(F)(F)C(F)(F)C(F)(F)C(F)(F)C(F)(F)C(F)(F)C(F)(F)C(F)(F)F.[Mn+2].[Na+] (stereo not drawn) [Example 1e, Manganese complex of 10-[2-hydroxy-4-aza-5-oxo-7-aza-7-(perfluorooctylsulfonyl)-nonyl]-1,4,7-tris(carboxymethyl)-1,4,7,10-tetraazacyclododecane (as sodium salt)] | 4.2 L/mmol/s | 2.7 L/mmol/s | – | – | –
4 | O=C([O-])CN1CCN(CC(=O)[O-])CCN(CC(O)CNC(=O)COCCC(F)(F)C(F)(F)C(F)(F)C(F)(F)C(F)(F)C(F)(F)C(F)(F)C(F)(F)F)CCN(CC(=O)[O-])CC1.[Gd+3] (stereo not drawn) [Example 2c, Gadolinium complex of 10-[2-hydroxy-4-aza-5-oxo-7-oxa-10,10,11,11,12,12,13,13,14,14,15,15,16,16,17,17,17-heptadecafluoroheptadecyl]-1,4,7-tris(carboxymethyl)-1,4,7,10-tetraazacyclododecane] | 33 L/mmol/s | 19 L/mmol/s | 33 L/mmol/s | 19 L/mmol/s | signal in the popliteal and inguinal lymph nodes of the injected side vs non-injected side or precontrast image [3]: strong signal rise; gadolinium concentration in the liver [4]: 0.22 % of the administered dose; gadolinium concentration in the remainder of the body [4]: 1.1 % of the administered dose
5 | O=C([O-])CN1CCN(CC(=O)[O-])CCN(CC(O)COCCC(F)(F)C(F)(F)C(F)(F)C(F)(F)C(F)(F)C(F)(F)C(F)(F)C(F)(F)F)CCN(CC(=O)[O-])CC1.[Gd+3] (stereo not drawn) [Example 3c, Gadolinium complex of 10-[-2hydroxy-4-oxa-1H,1H,2H,3H,3H,5H,5H,6H,6H-perfluorotetradecyl]-1,4,7-tris(carboxymethyl)-1,4,7,10-tetraazacyclododecane] | 27.5 L/mmol/s | 15.2 L/mmol/s | 27.5 L/mmol/s | 15.2 L/mmol/s | –
6 | CNC[C@H](O)[C@@H](O)[C@H](O)[C@H](O)CO.CNC[C@H](O)[C@@H](O)[C@H](O)[C@H](O)CO.O=C([O-])CN(CCN(CC(=O)[O-])CC(=O)O)CCN(CC(=O)[O-])CC(=O)O.[Gd+3] [Magnevist, reference compound] | – | – | 4.8 L/mmol/s | 3.8 L/mmol/s | –
7 | albumin-Gd-DTPA | – | – | – | – | concentration in the liver tissue [5]: ~30 % of the dose
8 | polylysine-Gd-DTPA | – | – | – | – | R^1 [L/mmol * sec] at 0.47 T and 37° C. Plasma ([6]; in plasma): 16.8 L/mmol/s; R^1 [L/mmol * sec] at 0.47 T and 37° C. Water ([6]; in water): 13.1 L/mmol/s

From patent US6916461B2, “Metal complexes that contain perfluoroalkyl, process for their production and their use in NMR diagnosis” (Schering AG, priority 1996, dated 2005)
